Reference: the NIST ThermoML archive (doi:10.1016/j.fluid.2016.10.004)

Settings: for mass density: 100 kPa, Liquid, buoyancy

CCC[n+]1ccccc1C.O=S(=O)([N-]S(=O)(=O)C(F)(F)F)C(F)(F)F
surface tension liquid-gas [mN/m]
Settings | Ring tensiometer | Wilhelmy plate
264.98 K | 37.98 | –
274.35 K | 37.65 | –
278.08 K | 37.48 | –
283.24 K | 37.32 | –
283.37 K | – | 36.98
288.21 K | 37.06 | –
288.25 K | – | 36.82
293.4 K | 36.9 | –
293.42 K | – | 36.65
298.31 K | 36.64 | 36.5
302.93 K | 36.45 | –
303.05 K | – | 36.31
307.78 K | 36.29 | –
307.82 K | – | 36.11
312.97 K | 36.07 | 35.95
318.38 K | – | 35.76
318.39 K | 35.83 | –
322.88 K | – | 35.52
322.94 K | 35.54 | –
328.34 K | 35.29 | 35.32
333.16 K | 35.03 | 35.12
337.5 K | 34.74 | –
337.93 K | – | 34.92
343.2 K | – | 34.77
343.21 K | 34.63 | –
347.6 K | – | 34.53
347.65 K | 34.27 | –
353.02 K | 34.14 | 34.38
359.26 K | – | 34.14
359.32 K | 33.83 | –
363.55 K | – | 33.94
363.67 K | 33.73 | –

Settings | mass density [kg/m3]
274.36 K | 1487.31
278.09 K | 1484.28
283.39 K | 1478.78
288.24 K | 1473.7
293.42 K | 1468.58
298.29 K | 1464.23
303.1 K | 1459.95
307.9 K | 1454.39
313.05 K | 1449.74
318.4 K | 1444.8
322.98 K | 1440.18
328.44 K | 1435.36
333.33 K | 1430.49
338.04 K | 1426.36
343.34 K | 1421.49
347.7 K | 1417.08
353.28 K | 1412.49
359.15 K | 1407.9
363.7 K | 1403.29

CCC[n+]1ccc(C)cc1.O=S(=O)([N-]S(=O)(=O)C(F)(F)F)C(F)(F)F
Settings | mass density [kg/m3]
268.1 K | 1482.1
278.71 K | 1469.95
283.45 K | 1465.84
288.19 K | 1461.42
293.46 K | 1456.03
298.38 K | 1450.93
303.12 K | 1446.6
308.24 K | 1440.93
313.15 K | 1435.96
318.2 K | 1431.59
323.16 K | 1426.43
328.14 K | 1421.84
333.57 K | 1416.94
338.25 K | 1412.36
343.8 K | 1407.53
348.11 K | 1402.8
353.25 K | 1398.13
357.74 K | 1394
362.63 K | 1389.16

surface tension liquid-gas [mN/m]
Settings | Ring tensiometer | Wilhelmy plate
288.19 K | 35.82 | –
288.22 K | – | 35.61
293.49 K | 35.56 | 35.39
298.37 K | 35.36 | 35.2
303.11 K | 35.17 | –
303.12 K | – | 35
308.15 K | 34.96 | –
308.17 K | – | 34.85
313.06 K | 34.66 | 34.65
318.14 K | – | 34.48
318.15 K | 34.46 | –
323.06 K | – | 34.25
323.07 K | 34.23 | –
327.97 K | 33.95 | –
328 K | – | 34.04
332.97 K | 33.7 | –
333.36 K | – | 33.79
338.08 K | – | 33.6
338.17 K | 33.44 | –
343.75 K | – | 33.43
343.8 K | 33.2 | –
347.87 K | – | 33.2
348.11 K | 32.98 | –
353.29 K | – | 33.01
353.47 K | 32.7 | –
357.58 K | – | 32.83
357.72 K | 32.42 | –
362.45 K | – | 32.61
362.65 K | 32.22 | –

CCC[n+]1ccccc1.O=S(=O)([N-]S(=O)(=O)C(F)(F)F)C(F)(F)F [1-propylpyridinium bis((trifluoromethyl)sulfonyl)amide]
Settings | surface tension liquid-gas [mN/m]
318.35 K, Wilhelmy plate | 34.52
318.38 K, Ring tensiometer | 34.67
322.86 K, Wilhelmy plate | 34.29
322.89 K, Ring tensiometer | 34.46
328.15 K, Wilhelmy plate | 34.02
328.19 K, Ring tensiometer | 34.21
333.17 K, Wilhelmy plate | 33.75
333.21 K, Ring tensiometer | 33.97
338 K, Wilhelmy plate | 33.56
338.03 K, Ring tensiometer | 33.8
343.1 K, Wilhelmy plate | 33.35
343.11 K, Ring tensiometer | 33.56
347.59 K, Ring tensiometer | 33.34
347.63 K, Wilhelmy plate | 33.13
353.31 K, Wilhelmy plate | 32.87
353.34 K, Ring tensiometer | 33.1
358.35 K, Wilhelmy plate | 32.64
358.37 K, Ring tensiometer | 32.82
362.09 K, Wilhelmy plate | 32.43
362.18 K, Ring tensiometer | 32.61

Settings | mass density [kg/m3]
318.41 K | 1468.8
323.02 K | 1464.45
328.3 K | 1459.61
333.28 K | 1454.58
338.11 K | 1450.05
343.18 K | 1445.34
347.36 K | 1440.68
353.35 K | 1435.49
357.87 K | 1430.78
362.15 K | 1426.55

CCC[n+]1cccc(C)c1.O=S(=O)([N-]S(=O)(=O)C(F)(F)F)C(F)(F)F
surface tension liquid-gas [mN/m]
Settings | Ring tensiometer | Wilhelmy plate
264.14 K | 36.35 | –
268.06 K | 36.23 | –
273.39 K | 36.1 | –
273.45 K | – | 35.78
278.42 K | 35.88 | 35.59
283.19 K | 35.6 | –
283.2 K | – | 35.41
288.5 K | 35.39 | –
288.67 K | – | 35.22
292.92 K | 35.23 | –
292.99 K | – | 35.06
298.42 K | 35.03 | –
298.44 K | – | 34.88
303.1 K | 34.83 | –
303.12 K | – | 34.68
308.03 K | 34.64 | –
308.04 K | – | 34.53
312.72 K | – | 34.29
312.75 K | 34.39 | –
318.22 K | 34.12 | –
318.25 K | – | 34.08
323.19 K | – | 33.91
323.23 K | 33.95 | –
328.11 K | 33.69 | 33.65
333.15 K | – | 33.46
333.21 K | 33.43 | –
339.21 K | – | 33.18
339.28 K | 33.18 | –
342.59 K | 33.03 | –
342.65 K | – | 33.08
347.77 K | – | 32.85
347.91 K | 32.78 | –
352.59 K | – | 32.7
352.62 K | 32.49 | –

Settings | mass density [kg/m3]
264.25 K | 1481.37
268.17 K | 1476.75
273.62 K | 1471.18
278.64 K | 1466.69
283.23 K | 1461.95
288.58 K | 1456.8
293 K | 1452.82
298.44 K | 1448.15
303.17 K | 1443.76
308.13 K | 1438.23
312.76 K | 1433.63
318.32 K | 1428.63
323.28 K | 1423.98
328.19 K | 1419.2
333.31 K | 1414.52
339.09 K | 1409.83
342.77 K | 1406.02
348.02 K | 1401
352.77 K | 1396.52
358.08 K | 1391.47
363.28 K | 1386.7
